# Measurements: US20210015793A1, “COMPOUNDS FOR TREATING CNS- AND NEURODEGENERATIVE DISEASES” (ETH ZURICH, priority 2018, published 2021)
# How the values were obtained:
# [1] = test system: rats subjected to the CUMS protocol; test: Sucrose preference test (anhedonia) in rats subjected to CUMS; format: in vivo, rat; conditions: treated during CUMS
# Description: (§1) The following stimuli were administered each week in a random order: two periods (7 h and 17 h) of 45° cage tilt; soaked cage for 17 h; food deprivation (24 h) and water deprivation (12 h), twice a week; paired housing (17 h); overnight illumination during the dark phase, twice a week; noise (85 dB) in the room for 5 h, twice a week; flashing light (60 flashes/min) for 6 h, three times a week (AbdAlla et al., Biomed. Res. Int. 2015:917156 (2015); El-faramawy et al., Pharmacol. Biochem. Behav. 91, 339-344 (2009)). The sucrose preference test (2% sucrose in water) was done immediately after a period of food and water deprivation.
# Symptoms of depression and anhedonia induced by the CUMS protocol as a typical model of depression were determined by the sucrose preference test. For the sucrose preference test, rats (or mice) were trained to consume a sucrose solution (2%), which was put in the cage with a bottle of water. The sucrose consumption was determined at baseline for two weeks before the CUMS protocol (1 test per week, for 1 h, at 9-10 a.m.), and after 4 weeks of CUMS immediately after a period of food (24 h) and water (12 h) deprivation. The ratio of the sucrose-to-water consumption was determined. […] Similarly, the treatment effect of illustrative compounds on prevention of symptoms of depression was assessed by the sucrose preference test. […]
# [2] = test system: rats subjected to the CUMS protocol; test: Immunoblot detection of hippocampal PHF-Tau (AT8) in aged rats subjected to CUMS; format: in vivo, rat; conditions: 16 months-old rats, CUMS for 4 weeks, oral treatment 8 mg/kg/d
# Description: as §1, with “As a model for reproducing major features of sporadic AD and depression, 15 months-old male rats were […] according to the CUMS protocol for 4 weeks. The following” for “The following”, “water deprivation. […]” for “water deprivation.”
# For immunoblot detection of PHF-Tau in the hippocampus of aged 16 month-old rats subjected to the CUMS protocol for 4 weeks, hippocampi were dissected out from isolated brains on ice, pulverized under liquid nitrogen, and proteins were extracted with guanidine-hydrochloride (6.25 M guanidine hydrochloride in 50 mM Tris, pH 8.0 supplemented with 1× protease inhibitors and 1× phosphatase inhibitors) for 30 min at 4° C. […] For quantitative analysis, quantitative immunoblot evaluation was performed. To control for equal protein loading, the total content of hippocampal Gnb was determined. […]
structure (smiles),measurement,setting,value
"O=C(C1=C(O)C(c2ccccc2)N(c2ccc3c(c2)OCO3)C1=O)C1CC1 (stereo not drawn) [Compound-1, 1-(1,3-benzodioxol-5-yl)-4-(cyclopropane-carbonyl)-3-hydroxy-2-phenyl-2H-pyrrol-5-one]",sucrose consumption in sucrose preference test,"[1]; 16-month-old rats, 4 weeks CUMS, vs non-stressed control group",not significantly different from the non-stressed control group
same,CUMS-induced anhedonia in sucrose preference test,[1]; young rats (aged 4 months),prevented the development of CUMS-induced anhedonia and symptoms of depression
same,hippocampal PHF Tau hyperphosphorylation (immunoblot AT8),[2],retard PHF Tau hyperphosphorylation
